Reference: patent US20120309821A1, “Use of epigallocatechin-3-gallate for immune regulation” (NATIONAL DEFENSE MEDICAL CENTER, priority 2011, published 2012)

Assays:
Type in all cases: in vivo, mouse
anti-dsDNA antibodies = assay: Serum anti-dsDNA antibody ELISA; details: 120 mg/kg by gavage daily; week 34; increase over normal control
Experimental: Female NZB/W F1 mice were purchased from the Animal Center of the National Taiwan University (Taipei, Taiwan, ROC) and, at 12 weeks of age, were divided into two groups, one of which was given normal saline and served as the disease control, while the other was given 120 mg/kg body weight of EGCG (Ryss Lab, Inc., CA, USA) (this dose is a slight modification of those used in previous in vivo studies) by gavage daily till sacrificed at 34-weeks-old. 8-Week-old NZB/W F1 female mice (prior to onset of autoantibody production) were used as normal controls. Urine samples were collected in metabolic cages every 2 weeks and urine protein levels were measured, and serum samples were used to measure serum levels of blood urea nitrogen (BUN) and creatinine (Cr) as described previously (Ka, S. M. et al. Decoy receptor 3 ameliorates an autoimmune crescentic glomerulonephritis model in mice. J Am Soc Nephrol 18:2473-2485; 2007). […] Serum levels of anti-dsDNA antibodies were measured using an anti-mouse dsDNA enzyme-linked immunosorbent assay (ELISA) kit (Alpha Diagnostic, TX, USA) according to the manufacturer's instructions. The absorbance at 450 nm was measured using an ELISA plate reader (Bio-Tek, VT, USA).

NLRP3 mRNA = assay: Renal NLRP3 mRNA by real-time PCR; details: 120 mg/kg by gavage daily; week 34; increase seen in disease control
Experimental: (§1) Female NZB/W F1 mice were purchased from the Animal Center of the National Taiwan University (Taipei, Taiwan, ROC) and, at 12 weeks of age, were divided into two groups, one of which was given normal saline and served as the disease control, while the other was given 120 mg/kg body weight of EGCG (Ryss Lab, Inc., CA, USA) (this dose is a slight modification of those used in previous in vivo studies) by gavage daily till sacrificed at 34-weeks-old. 8-Week-old NZB/W F1 female mice (prior to onset of autoantibody production) were used as normal controls. Urine samples were collected in metabolic cages every 2 weeks and urine protein levels were measured, and serum samples were used to measure serum levels of blood urea nitrogen (BUN) and creatinine (Cr) as described previously (Ka, S. M. et al. Decoy receptor 3 ameliorates an autoimmune crescentic glomerulonephritis model in mice. J Am Soc Nephrol 18:2473-2485; 2007). All animal experiments were performed upon the ethical approval of the Institutional Animal Care and Use Committee of the National Defense Medical Center, Taiwan and according to the ethical rules in the NIH Guide for the Care and Use of Laboratory Animals.

superoxide anion = assay: Superoxide anion (ROS) levels in serum, urine and kidney; details: 120 mg/kg by gavage daily, week 34
Experimental: as §1, with “Animals. Kidney in situ superoxide anion production was determined by dihydroethidium (DHE) labeling. Fluorescent images were quantified by counting the percentage of positive nuclei in the total nuclei per kidney cross-section. Superoxide anion levels in serum and kidney tissues were measured as described previously and the results expressed as reactive luminescence units (RLU) per 15 min per milligram dry weight (i.e., RLU/15 min/mg dry weight).” for “Animals.”

[1] = system: NAD(P)H oxidase subunit p47phox; assay: Western blot of cytosolic p47phox in kidney; details: 120 mg/kg by gavage daily, week 34, increase seen in disease control
Experimental: as §1, with “Animals. […] Antibodies to histone H3 (Cell Signaling) or β-actin (Santa Cruz) were used as internal controls for the nuclear and cytosolic target proteins, respectively.” for “Animals.”

Epigallocatechin-3-gallate [EGCG]
serum anti-dsDNA antibody levels (anti-dsDNA antibodies): not inhibited
levels of NLRP3 mRNA in kidney tissues (NLRP3 mRNA): inhibited
levels of superoxide anion in the kidney (superoxide anion; kidney): inhibited
superoxide anion levels in the serum (superoxide anion; serum): decreased by EGCG treatment to levels similar to those in normal control mice
superoxide anion levels in the urine (superoxide anion; urine): decreased by EGCG treatment to levels similar to those in normal control mice
levels of NAD(P)H oxidase subunit p47phox [1]: abolished
